This note sets out measurements from ChEMBL document CHEMBL1148132, “Abietane diterpenoids from Coleus xanthanthus” (J Nat Prod, 2002).

Each structure is given as a SMILES string. In brackets after ≈: the same amount, converted by molar mass.

By IC50 is commonly meant the concentration at which inhibition is half-maximal. High values mean a need for much substance, low ones inhibition by little substance.

In the experiment the test system is K562. The experiment is described as follows: Cytotoxicity against human K562 cells after 48 hrs by MTT assay. It is filed as functional, cell-based. Particulars: K562, 48 h.
Consider `CC(C)C1=C(O)C(=O)C2=C(C(=O)C(O)=C3C(C)(C)CCC[C@]23C)C1=O`, for which the IC50 turned out to be 3 µg/mL (≈ 8.71 µM).

The molecule `CC(=O)Oc1c(O)c(C(C)C)c(O)c2c1[C@@]1(C)CCCC(C)(C)C1=C(O)C2=O` displayed an IC50 of 2.2 µg/mL (≈ 5.66 µM).

The molecule `CC(C)C1=C(O)C(=O)[C@@]23O[C@@]2(C(=O)C(O)=C2C(C)(C)CCC[C@@]23C)C1=O` yielded a half-inhibitory concentration (IC50) of 13.9 µg/mL (≈ 38.6 µM). Compared with the last molecule, the IC50 is about 6.3-fold higher.

The molecule `O=C1c2c(O)ccc(O)c2C(=O)c2c(NCCNCCO)ccc(NCCNCCO)c21` [MITOXANTRONE] gave an IC50 of 2 µg/mL (≈ 4.5 µM).

Consider `CC(C)C1=C(O)C(=O)C([C@@]2(C)CCCC(C)(C)C2=O)=C(C(=O)O)C1=O` [XANTHANTHUSIN E], for which the IC50 was found to be 34.3 µg/mL (≈ 98.5 µM).

Regarding `CC(=O)OCC(C)C1=C(OC(C)=O)C(=O)C2=C(C(=O)C(O)=C3C(C)(C)CCC[C@]23C)C1=O` (stereo partly specified) [XANTHANTHUSIN H], the IC50 was 12.9 µg/mL (≈ 29 µM).
